Data published in patent US4489084A, “[1-(2-Oxazolyl) or -(2-thiazolyl) hydrazino]alkyl nitriles” (Abbott Laboratories, priority 1983, dated 1984).
Counter-ions that a name gives are not always drawn.

Legend:
[1] = test system: dermal Arthus reaction (Type III hypersensitivity); assay: reverse passive Arthus assay (Carter and Krause); format: in vivo, rats (male Sprague-Dawley); conditions: 100 mg/kg, oral, 30 min before intradermal AntiB.S.A.; lesion after 4 hours; 4 rats per group
Method: Proc. 35, 774 (1976). Each compound was administered orally to a group of four animals. The reserve passive Arthus reaction test in rats is conducted as follows: Male Sprague-Dawley rats weighing approximately 130-160 g. are used, 4 rats per group. All animals are injected intravenously with 0.5 ml. 0.075% Bovine Serum Albumin (B.S.A.) +2% Evans Blue solution. Each rat then receives an oral dose of drug; one drug is administered per group. Thirty minutes subsequent to drug dosing, each animal is injected intradermally with 0.05 ml. 1.44% AntiB.S.A. into the dorsal skin. Four hours later the animals are sacrificed, the dorsal skin reflexed, and the lesion excised. Two perpendicular diameters of each lesion are measured. The average diameters of the lesions from the treated groups are compared with the average diameters from the control group to determine any drug effect. […] Proc. 35, 774 (1976)]. Each compound was administered orally to a group of four animals.

[2] = test system: carrageenin pleurisy (accumulation of exudate volume and leukocytes); assay: carrageenin pleurisy assay (modification of Vinegar et al.); format: in vivo; conditions: Dose 100 (unit not given); for % Inhibition, Volume exudates: exudate volume; for % Inhibition, Cells: leukocyte accumulation
Text: The anti-inflammatory activity of these compounds was established by using a modification of the carrageenin pleurisy assay described by Vinegar et al. Proc. Soc. Exp. Biol. Med. 143:711 (1973).

| SMILES | % Inhibition of lesion of dermal Arthus reaction [1] | % Inhibition, Volume exudates [2] [%] | % Inhibition, Cells [2] [%] |
| --- | --- | --- | --- |
| Cl.N#CCCN(N)c1ncco1 [3-[1-(2-Oxazolyl)hydrazino]propanenitrile hydrochloride] | 42% | 32 | 21 |
| Cc1nc(N(N)CCC#N)oc1C.Cl [3-[1-(4,5-dimethyl-2-oxazolyl)-hydrazino]propanenitrile hydrochloride] | 38% | – | – |
| N#CCCN(N)c1nc(-c2ccccc2)c(-c2ccccc2)o1 [3-[1-(4,5-diphenyl-2-oxazolylhydrazino)]propanenitrile hydrochloride] | 40% | – | – |
| Cl.N#CCCN(N)c1nc(-c2ccccc2)co1 [3-[1-(4-Phenyl-2-oxazolyl)-hydrazino]propanenitrile hydrochloride] | 59% | – | – |
| CCCCC1C(=O)N(c2ccccc2)N(c2ccccc2)C1=O [Phenylbutazone, reference compound] | Inactive | 59 | 13 |
